In the supplement of paper PMC10307832:

Key:
Assay in all cases: relative viability (nuclei count vs DMSO), 5 days (fraction); higher = more cells survive
AZD5582 + Linsitinib = compound: C[C@@H](C(=O)N[C@@H](C1CCCCC1)C(=O)N2CCC[C@H]2C(=O)N[C@@H]3[C@@H](CC4=CC=CC=C34)OCC#CC#CCO[C@@H]5CC6=CC=CC=C6[C@@H]5NC(=O)[C@@H]7CCCN7C(=O)[C@H](C8CCCCC8)NC(=O)[C@H](C)NC)NC [AZD5582] + C[C@]1(O)C[C@@H](c2nc(-c3ccc4ccc(-c5ccccc5)nc4c3)c3c(N)nccn32)C1 [Linsitinib] (partner 1 µM)
Method in brief: (§1)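 Relative viability is defined as nuclei in treated wells over nuclei in vehicle wells. Duplicate plates were run and medians reported. Lung cancer cell lines in 1536-well plates were dosed by pin tool one day after seeding, with one drug or with a fixed anchor-drug dose plus five library-drug doses (not always all listed) in √10 steps, and nuclei were counted after 5 days.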

AZD5582 + Dasatinib = compound: C[C@@H](C(=O)N[C@@H](C1CCCCC1)C(=O)N2CCC[C@H]2C(=O)N[C@@H]3[C@@H](CC4=CC=CC=C34)OCC#CC#CCO[C@@H]5CC6=CC=CC=C6[C@@H]5NC(=O)[C@@H]7CCCN7C(=O)[C@H](C8CCCCC8)NC(=O)[C@H](C)NC)NC [AZD5582] + Cc1nc(Nc2ncc(C(=O)Nc3c(C)cccc3Cl)s2)cc(N2CCN(CCO)CC2)n1 [Dasatinib] (partner 0.075 µM)
Method in brief: as §1

AZD5582 + Trametinib = compound: C[C@@H](C(=O)N[C@@H](C1CCCCC1)C(=O)N2CCC[C@H]2C(=O)N[C@@H]3[C@@H](CC4=CC=CC=C34)OCC#CC#CCO[C@@H]5CC6=CC=CC=C6[C@@H]5NC(=O)[C@@H]7CCCN7C(=O)[C@H](C8CCCCC8)NC(=O)[C@H](C)NC)NC [AZD5582] + CC(=O)Nc1cccc(-n2c(=O)n(C3CC3)c(=O)c3c(Nc4ccc(I)cc4F)n(C)c(=O)c(C)c32)c1 [Trametinib] (partner 0.02 µM)
Method in brief: as §1

AZD5582 + Palbociclib = compound: C[C@@H](C(=O)N[C@@H](C1CCCCC1)C(=O)N2CCC[C@H]2C(=O)N[C@@H]3[C@@H](CC4=CC=CC=C34)OCC#CC#CCO[C@@H]5CC6=CC=CC=C6[C@@H]5NC(=O)[C@@H]7CCCN7C(=O)[C@H](C8CCCCC8)NC(=O)[C@H](C)NC)NC [AZD5582] + CC(=O)c1c(C)c2cnc(Nc3ccc(N4CCNCC4)cn3)nc2n(C2CCCC2)c1=O [Palbociclib] (partner 0.5 µM)
Method in brief: as §1

AZD5582 + Navitoclax = compound: C[C@@H](C(=O)N[C@@H](C1CCCCC1)C(=O)N2CCC[C@H]2C(=O)N[C@@H]3[C@@H](CC4=CC=CC=C34)OCC#CC#CCO[C@@H]5CC6=CC=CC=C6[C@@H]5NC(=O)[C@@H]7CCCN7C(=O)[C@H](C8CCCCC8)NC(=O)[C@H](C)NC)NC [AZD5582] + CC1(C)CCC(c2ccc(Cl)cc2)=C(CN2CCN(c3ccc(C(=O)NS(=O)(=O)c4ccc(N[C@H](CCN5CCOCC5)CSc5ccccc5)c(S(=O)(=O)C(F)(F)F)c4)cc3)CC2)C1 [Navitoclax] (partner 0.5 µM)
Method in brief: as §1

| Cell Line | relative viability (AZD5582 + Linsitinib; first compound 0.001581 µM) | relative viability (AZD5582 + Linsitinib; first compound 0.005 µM) | relative viability (AZD5582 + Linsitinib; first compound 0.01581 µM) | relative viability (AZD5582 + Linsitinib; first compound 0.05 µM) | relative viability (AZD5582 + Dasatinib; first compound 0.001581 µM) | relative viability (AZD5582 + Dasatinib; first compound 0.005 µM) | relative viability (AZD5582 + Dasatinib; first compound 0.01581 µM) | relative viability (AZD5582 + Dasatinib; first compound 0.05 µM) | relative viability (AZD5582 + Trametinib; first compound 0.001581 µM) | relative viability (AZD5582 + Trametinib; first compound 0.005 µM) | relative viability (AZD5582 + Trametinib; first compound 0.01581 µM) | relative viability (AZD5582 + Trametinib; first compound 0.05 µM) | relative viability (AZD5582 + Palbociclib; first compound 0.001581 µM) | relative viability (AZD5582 + Palbociclib; first compound 0.005 µM) | relative viability (AZD5582 + Palbociclib; first compound 0.01581 µM) | relative viability (AZD5582 + Palbociclib; first compound 0.05 µM) | relative viability (AZD5582 + Navitoclax; first compound 0.001581 µM) | relative viability (AZD5582 + Navitoclax; first compound 0.005 µM) | relative viability (AZD5582 + Navitoclax; first compound 0.01581 µM) | relative viability (AZD5582 + Navitoclax; first compound 0.05 µM) |
| --- | --- | --- | --- | --- | --- | --- | --- | --- | --- | --- | --- | --- | --- | --- | --- | --- | --- | --- | --- | --- |
| NCI-H358 | 0.817 | 0.998 | 0.899 | 0.847 | 0.158 | 0.193 | 0.265 | 0.166 | 0.156 | 0.157 | 0.142 | 0.147 | 0.124 | 0.156 | 0.14 | 0.136 |  |  |  |  |
| HCC-827 | 0.897 | 0.968 | 0.885 | 0.948 | 0.342 | 0.218 | 0.289 | 0.411 | 0.538 | 0.611 | 0.515 | 0.589 | 0.481 | 0.47 | 0.492 | 0.529 | 1.09 | 1.01 | 0.972 | 1.04 |
| NCI-H1355 | 0.774 | 0.829 | 0.788 | 0.96 | 0.638 | 0.749 | 0.583 | 0.719 | 0.396 | 0.444 | 0.452 | 0.409 | 0.378 | 0.415 | 0.386 | 0.357 | 0.926 | 0.951 | 0.954 | 1.01 |
| NCI-H1793 | 0.816 | 1.01 | 0.752 | 1.11 | 0.32 | 0.429 | 0.292 | 0.261 | 0.464 | 0.536 | 0.463 | 0.557 | 0.311 | 0.355 | 0.297 | 0.397 | 0.475 | 0.453 | 0.476 | 0.465 |
| CAL-12T | 0.665 | 0.656 | 0.775 | 0.544 | 0.261 | 0.333 | 0.363 | 0.349 | 0.31 | 0.34 | 0.291 | 0.216 | 0.2 | 0.225 | 0.309 | 0.159 |  | 0.531 | 1.26 | 0.854 |
| NCI-H1993 | 0.688 | 0.657 | 0.724 | 0.705 | 0.634 | 0.576 | 0.557 | 0.573 | 0.455 | 0.505 | 0.493 | 0.526 | 0.564 | 0.558 | 0.655 | 0.664 | 0.917 | 0.936 | 0.876 | 0.922 |
| EKVX | 0.872 | 1.12 | 0.875 | 1.14 | 0.502 | 0.615 |  | 0.627 | 0.276 | 0.405 | 0.289 | 0.376 | 0.378 | 0.425 | 0.298 | 0.393 | 0.878 | 1.01 | 0.798 | 0.959 |
| NCI-H1755 | 1.01 | 1.02 | 0.982 | 1.09 | 0.398 | 0.456 | 0.356 | 0.363 | 0.761 | 0.843 | 0.802 | 0.9 | 0.449 | 0.484 | 0.453 | 0.526 | 0.933 | 0.973 | 1.01 | 1 |
| NCI-H2228 | 0.903 | 0.689 | 0.813 | 0.44 | 0.437 | 0.506 | 0.478 | 0.139 | 0.529 | 0.434 | 0.714 | 0.161 | 0.674 | 0.706 | 0.84 | 0.127 | 0.904 | 0.851 | 0.837 | 0.555 |
| NCI-H460 | 0.722 | 0.895 | 0.88 | 1.04 | 0.439 | 0.578 | 0.429 | 0.362 | 0.118 | 0.243 | 0.144 | 0.221 | 0.102 | 0.189 | 0.211 | 0.148 | 1.08 | 1.03 | 1.06 | 1.03 |
| HCC-44 | 0.589 | 0.558 | 0.616 | 0.432 |  |  |  |  | 0.883 | 0.967 | 1.02 | 0.878 | 0.906 | 0.931 | 1.02 | 0.928 | 0.919 | 0.692 | 1.01 | 0.581 |
| BEN | 0.718 | 1.01 | 0.91 | 1.09 | 0.329 | 0.344 | 0.289 | 0.304 | 0.893 | 1.13 | 1.05 | 1.2 | 0.416 | 0.466 | 0.497 | 0.435 | 0.0668 | 0.0512 | 0.0565 | 0.0544 |
| H3255 | 0.81 | 0.975 | 0.839 | 0.893 | 0.329 | 0.404 | 0.294 | 0.283 | 0.58 | 0.667 | 0.557 | 0.524 | 0.29 | 0.306 | 0.302 | 0.318 | 0.479 | 0.59 | 0.375 | 0.213 |
| NCI-H1650 |  |  |  |  | 0.293 | 0.352 | 0.341 | 0.344 | 0.447 | 0.596 | 0.514 | 0.621 | 0.37 | 0.43 | 0.334 | 0.328 | 1.07 | 1.04 | 1.23 | 1.17 |
